In assay [1] the test system is Malme-3M (melanoma). The assay can be described thus: Tumor cell proliferation assay, Malme-3M. The class given is cell-based. The following applies: Homo sapiens, 72h drug exposure, read-out: median IC50. The procedure:
(§1) Biological Assay 4.0: Tumor Cell Proliferation Assays
(§2) Compounds were tested in a cell-based assay that measures the capacity of the compounds to inhibit tumour cell proliferation following a 72h drug exposure. Cell viability is determined using CellTiter-Glow® (CTG, Promega, cat# G7571/2/3). The CellTiter-Glo® Luminescent Cell Viability Assay is a homogeneous method to determine the number of viable cells in culture. Detection is based on using the luciferase reaction to measure the amount of ATP from viable cells. The amount of ATP in cells correlates with cell viability. Within minutes after a loss of membrane integrity, cells lose the ability to synthesize ATP, and endogenous ATPases destroy any remaining ATP; thus the levels of ATP fall precipitously.
(§3) Cells were plated at 3000-5000 cells/well (depending on the cell lines) in 90 μL growth medium on MTPs (Corning; #3603, black plate, clear flat bottom). For each cell line assayed, cells were plated onto a separate plate for determination of […] at t=0 hour and t=72 hour time points. Following overnight incubation at 37° C., chemiluminescence values for the t=0 samples were determined after adding 10 μl medium and 100 μl CTG solution according to manufacture protocol. […] Chemiluminescence values for the t=72 hour samples were determined. […]

Assay [2] has as its system U87 (brain). The assay can be described thus: Tumor cell proliferation assay, U87. The class given is cell-based. The following applies: 72h drug exposure, read-out: median IC50. The procedure:
as §1, §2, §3

Assay [3] concerns KPL-4 breast cancer cell line. The assay can be described thus: Tumor cell proliferation assay (CellTiter-Glo, 72 h), KPL-4. The class given is cell-based. The following applies: KPL4, 72h drug exposure. In short, it runs like this: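 KPL-4 cells were treated with compound for 72 h at 37°C. Viability was measured as ATP by CellTiter-Glo luminescence, with a separate t=0 plate read after overnight attachment. A reference compound was run as standard.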

Assay [4] relates to UACC-62 (melanoma). The assay can be described thus: Tumor cell proliferation assay, UACC-62. The class given is cell-based. The settings on record: Homo sapiens, 72h drug exposure, read-out: median IC50. On the procedure: as §1, §2, §3
In assay [5] the test system is A375 (melanoma). The assay can be described thus: Tumor cell proliferation assay, A375. The class given is cell-based. The following applies: Homo sapiens, A-375, 72h drug exposure, read-out: median IC50. The procedure: as §1, §2, §3
Assay [6] has as its system H1993 (NSCLC). The assay can be described thus: Tumor cell proliferation assay, H1993. The class given is cell-based. The settings on record: Homo sapiens, NCI-H1993, 72h drug exposure, read-out: median IC50. The procedure: as §1, §2, §3
In assay [7] the test system is HMCB (melanoma). The assay can be described thus: Tumor cell proliferation assay, HMCB. The class given is cell-based. The following applies: Homo sapiens, 72h drug exposure, read-out: median IC50. The procedure: as §1, §2, §3
Assay [8] concerns SK-Mel-28 (melanoma). Put plainly: Tumor cell proliferation assay, SK-Mel-28. The following applies: Homo sapiens, 72h drug exposure, read-out: median IC50. The class given is cell-based. The procedure: as §1, §2, §3
Assay [9] has as its system UACC-257 (melanoma). Put plainly: Tumor cell proliferation assay, UACC-257. The class given is cell-based. The settings on record: Homo sapiens, 72h drug exposure, read-out: median IC50. The procedure:
as §1, §2, §3

In assay [10] the test system is A2058 (melanoma). The assay can be described thus: Tumor cell proliferation assay, A2058. The class given is cell-based. The settings on record: Homo sapiens, 72h drug exposure, read-out: median IC50. On the procedure: as §1, §2, §3
The subject of assay [11] is HT-144 (melanoma). Put plainly: Tumor cell proliferation assay, HT-144. The class given is cell-based. The following applies: Homo sapiens, 72h drug exposure, read-out: median IC50. On the procedure:
as §1, §2, §3

Assay [12] concerns MeWo (melanoma). Put plainly: Tumor cell proliferation assay, MeWo. The class given is cell-based. The following applies: Homo sapiens, 72h drug exposure, read-out: median IC50. The procedure: as §1, §2, §3
The test system of assay [13] is p-AKT1/2/3-S473 in KPL4 breast tumour cell line. Put plainly: Cellular p-AKT1/2/3-S473 assay. The settings on record: KPL4 breast tumour cell line, 2 hours treatment; read-out: pAKT-S743 median IC50. The class given is cell-based. In short, it runs like this:
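KPL4 cells (PIK3CA H1047R, HER2 0/E, hormone independent) were seeded at 60–80% confluency, cultured overnight, then exposed to compound for 2 h at 37 °C. pAKT-S473 and total AKT measured together by MSD Akt Duplex on 20 µg extract; pAKT expressed as % of total AKT, at least duplicate with independent repeats.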

Assay [14] has as its target His-tagged human recombinant kinase full-length Akt1 (Homo sapiens (Human), UniProt P31749). The assay can be described thus: Akt1 kinase assay (TR-FRET). The class given is biochemical. The following applies: 10 μM ATP; read-out: Akt1, median IC50. In outline:
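Full-length His-tagged Akt1 (about 0.05 ng/μl final) preincubated 15 min at 22 °C with compound in 50 mM TRIS/HCl pH 7.5, 5 mM MgCl2, 1 mM DTT, 0.02% Triton X-100; biotinylated peptide substrate. Phosphopeptide detected by TR-FRET (Eu-chelate antibody to streptavidin-XL665) after 1 h at 22 °C.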
Background: In TR-FRET formats the signal depends on donor and acceptor labels being close together.

Here are results for 2 compounds from US8975265B2, “Substituted imidazo[1,2-a]pyrimidines and —pyridines” (Bayer Intellectual Property GmbH, priority 2010, dated 2015).

His-tagged human recombinant kinase full-length Akt1, sequence (P31749 whole entry): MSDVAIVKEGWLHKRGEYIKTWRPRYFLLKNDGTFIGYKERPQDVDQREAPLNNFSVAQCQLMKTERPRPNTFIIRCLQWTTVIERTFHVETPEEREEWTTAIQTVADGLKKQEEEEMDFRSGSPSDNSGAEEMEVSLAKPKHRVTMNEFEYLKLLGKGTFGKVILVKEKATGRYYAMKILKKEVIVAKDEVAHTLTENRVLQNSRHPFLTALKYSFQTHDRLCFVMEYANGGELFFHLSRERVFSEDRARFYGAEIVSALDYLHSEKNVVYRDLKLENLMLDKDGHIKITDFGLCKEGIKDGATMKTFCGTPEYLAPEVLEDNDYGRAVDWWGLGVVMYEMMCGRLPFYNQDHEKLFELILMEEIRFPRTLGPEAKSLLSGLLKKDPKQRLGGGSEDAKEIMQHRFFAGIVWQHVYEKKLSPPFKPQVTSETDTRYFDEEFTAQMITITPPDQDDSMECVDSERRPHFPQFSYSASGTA

Consider `NC1(c2ccc(-c3nc4nc(-c5ccccc5)ccn4c3-c3ccccc3)cc2)CCC1` [Example 1-3], for which the half-inhibitory concentration (IC50) in assay [1] came out at 1.9 µM; in assay [2] it was 4.9 µM; in assay [3] it was 1.7 µM; in [4], 2.2 µM; in assay [5], 2.2 µM; in [6], 0.6 µM. Further, the IC50 in [7] was 2.6 µM; in assay [8] it was 2 µM; in [9], 1.1 µM; in [10], 2.2 µM; in assay [11], 2.3 µM; in assay [12], 2 µM.

Consider `COc1ccn2c(-c3ccccc3)c(-c3ccc(C4(N)CCC4)cc3)nc2n1` [Example 2-0, 1-[4-(7-methoxy-3-phenyl-imidazo[1,2-a]pyrimidin-2-yl)-phenyl]-cyclobutylamine], for which the IC50 was found to be 2.4 µM in [1]; 10 µM in assay [2]; 0.8 µM in assay [3]; 0.03 µM in [13]; 8.9 µM in [4]; 8.6 µM in assay [5]. Besides, the IC50 in [6] stood at 0.5 µM; in assay [7], 8.5 µM; in assay [8], 3.7 µM; in assay [9], 2 µM; in [10] it was 2.1 µM; in [11], 2.1 µM. For the same compound, the figures for the IC50 in assay [14] and in [12] were 0.142 µM and 5.2 µM, respectively.

In general, IC50 refers to the midpoint of a concentration-inhibition curve.
